The compounds below were run on platelet aggregation (assay: In-Vitro Platelet Aggregation in PRP (ADP-induced)). Details: Canis lupus familiaris; dog platelet-rich plasma; ADP 50 μM final; 1 min preincubation at 37° C.; read-out: IC50 (dosage at which 50% of platelet aggregation is inhibited).
Assay type: cell-based
Method: Healthy male or female dogs were fasted for 8 hours prior to drawing blood; then 30 mL whole blood was collected using a butterfly needle and 30 mL plastic syringe with 3 mL of 0.129M buffered sodium citrate (3.8%). The syringe was rotated carefully as blood was drawn to mix the citrate. Platelet-rich plasma (PRP) was prepared by centrifugation at 975×g for 3.17 minutes at room temperature allowing the centrifuge to coast to a stop without braking. The PRP was removed from the blood with a plastic pipette and placed in a plastic-capped 50 mL Corning conical sterile centrifuge tube which was held at room temperature. Platelet-poor plasma (PPP) was prepared by centrifuging the remaining blood at 2000×g for 15 minutes at room temperature allowing the centrifuge to coast to a stop without braking. The PRP was adjusted with PPP to a count of 2-3×10^8 platelets/mL. The PRP preparation (400 μL) and 50 μL of the compound solution to be tested or saline were preincubated for 1 minute at 37° C. in a BioData aggregometer (BioData, Horsham, Pa.). Adenosine-5'-diphosphate (ADP, 50 μL, 50 μM final concentration) was added to the cuvettes and the aggregation was monitored for 1 minute. All compounds are tested in duplicate. Results are calculated as follows: Percent of control=[(maximal OD minus initial OD of compound) divided by (maximal OD minus initial OD of control saline)]×100. The percent inhibition equals 100-(percent of control).
The compounds tested and their median inhibitory concentrations (IC50) are recorded in Table 1. The IC50 (dosage at which 50% of platelet aggregation is inhibited) were calculated by linear regression of the dose response curve.

Point of comparison: `N=C(N)c1cnc(CCCCC(=O)N[C@@H](CC(=O)O)C(=O)N[C@@H](Cc2ccccc2)C(=O)O)nc1` [Ex. 2], IC50 110 nM. Against it:
- N=C(N)c1cnc(CCCCC(=O)N[C@@H](CC(=O)O)C(=O)N[C@@H](Cc2ccccc2)C(N)=O)nc1 (relative stereo) [Ex. 1, [S,(R*,R*)]-3-[[5-[5-(aminoiminomethyl)-2-pyrimidinyl]-1-oxopentyl]amino]-4-[[2-amino-2-oxo-1-(phenylmethyl)ethyl]amino]-4-oxobutanoic acid] — 5.4-fold higher, 590 nM
- N=C(N)c1cnc(CCCCC(=O)NC(CC(=O)O)c2ccccc2)nc1 (stereo not drawn) [Ex. 3, β-[[5-[5-(aminoiminomethyl)-2-pyrimidinyl]-1-oxopentyl]amino]-phenylpropanoic acid] — 20-fold higher, 2200 nM
- N=C(N)c1cnc(CCCCC(=O)NCCC(=O)O)nc1 [Ex. 4, N-[5-[5-(aminoiminomethyl)-2-pyrimidinyl]-1-oxopentyl]-β-alanine] — 450-fold higher, 50000 nM
- N=C(N)c1cnc(CCCCC(=O)NC(CC(=O)O)c2cccnc2)nc1 (stereo not drawn) [Ex. 6, β-[[5-[5-(aminoiminomethyl)-2-pyrimidinyl]-1-oxopentyl]amino]-3-pyridinepropanoic acid] — 4.8-fold higher, 530 nM

Reference: US5872122A, “Pyrimidinylamidino β-amino acid derivatives useful as inhibitors of platelet aggregation” (Monsanto Company, priority 1997, dated 1999)
